We go through 17 compounds from US8592426B2, “Aryl-benzocycloalkyl amide derivatives” (Hoffmann—La Roche Inc., priority 2011, dated 2013).

pIC50, pKi: −log10 of the molar value.

Assay [1] deals with T1, Bradykinin-1 receptor (Homo sapiens (Human), UniProt P46663). Description: Receptor binding assay (B1R Binding Assay), [3H]-Kallidin (Des Arg10, Leu9) displacement. The conditions noted are these: membranes from CHO-K1 cells overexpressing Bradykinin-1 receptor; 6 nM radioligand. The procedure:
Binding assays were done with membranes from CHO-K1 cells overexpressing Bradykinin-1 receptor.
To determine non-specific binding 10 μM Lys-(Des-Arg^9)-Bradykinin (Bachem) was added. Membranes were harvested through GF/B (glass fiber filter; PerkinElmer) plates, equilibrated with 0.5% polyethylenimine, air dried at 50° C. for 2 h. Radioactivity was determined by counting in a topcounter (NXT Packard).

Assay [2] addresses T1, Bradykinin-1 receptor. Nature of the assay: Calcium mobilization assay (FLIPR, Fluo-4) in GeneBLAzer Bradykinin (B1)-NFAT-bla CHO-K1 cells. The assay is classed as cell-based. As to conditions: antagonist activity; CHO-K1 cells stably overexpressing the human bradykinin 1 receptor; read-out: Ca mobilization Assay IC50. On the procedure: Calcium Mobilization Assay
GeneBLAzer® Bradykinin (B1)-NFAT-bla CHO-K1 cells (from Invitrogen) stably overexpressing the human bradykinin 1 receptor were cultured in DMEM (high glucose) supplemented with 10% dialysed FBS, 1% NEAA (non essential amino acids) 1% penicillin/streptomycin, 1% G418 and 0.1 mg/ml zeocin.
For the assay cells were grown overnight in 384-well black clear flat bottom polystyrene plates (Costar) at 37° C. at 5% CO2. After washing with DMEM, 20 mM Hepes, 2.5 mM probenecid, 0.1% BSA (DMEM assay buffer) cells were loaded with 4 μM Fluo-4 in the same DMEM assay buffer for 2 hours at 30° C. Excess dye was removed and cells were washed with DMEM assay buffer. 384-well compound plates were prepared with DMEM assay buffer/0.5% DMSO with or without various concentrations of test compounds. Usually compounds were tested for agonist and antagonist activity.
Test compounds were added to the assay plate and agonist activity was monitored as fluorescence for 80 seconds with a FLIPR (488 nm excitation; 510-570 nm emission; Molecular Devices). After 20-30 min. of incubation at 30° C., 20 nM […] (R&D; Roche) was added and fluorescence was monitored again for 80 seconds. Increases in intracellular calcium are reported as maximum fluorescence after agonist exposure minus basal fluorescence before exposure.
(Calcium flux is commonly read through the fluorescence of an indicator in the cells.)

T1 sequence (P46663 whole entry): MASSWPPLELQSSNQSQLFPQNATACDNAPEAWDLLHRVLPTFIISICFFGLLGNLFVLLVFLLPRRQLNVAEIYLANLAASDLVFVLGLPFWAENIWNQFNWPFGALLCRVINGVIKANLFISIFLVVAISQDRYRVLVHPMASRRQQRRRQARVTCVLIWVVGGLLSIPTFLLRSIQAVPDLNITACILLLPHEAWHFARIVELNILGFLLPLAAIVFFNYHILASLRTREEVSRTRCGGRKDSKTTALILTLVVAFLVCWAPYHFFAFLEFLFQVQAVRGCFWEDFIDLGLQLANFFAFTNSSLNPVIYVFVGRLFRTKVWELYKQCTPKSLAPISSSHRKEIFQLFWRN

In the case of `Cn1nnc(-c2c(F)cc(Cl)cc2-c2ccc3c(c2)SCC3NC(=O)C2(N)CC2)n1` (racemic) [Example 61, 1-Amino-cyclopropanecarboxylic acid{(rac)-6-[5-chloro-3-fluoro-2-(2-methyl-2H-tetrazol-5-yl)-phenyl]-2,3-dihydro-benzo[b]thiophen-3-yl}-amide], the pKi (as a rule, the negative decadic logarithm of the Ki, by convention in mol/L) in assay [1] is 6.58. The pIC50 (usually −log10 of the IC50, conventionally taken in molar units) in assay [2] is 7.76.

Take `Cc1nnc(C(=O)NC2(C(=O)NC3CSc4cc(-c5cc(Cl)cc(F)c5-c5nnn(C)n5)ccc43)CC2)o1` (racemic) [Example 62, 5-Methyl-[1,3,4]oxadiazole-2-carboxylic acid(1-{(rac)-6-[5-chloro-3-fluoro-2-(2-methyl-2H-tetrazol-5-yl)-phenyl]-2,3-dihydro-benzo[b]thiophen-3-ylcarbamoyl}-cyclopropyl)-amide]: the negative logarithm of the Ki (pKi) in assay [1] is 7.91. Further, the pIC50 in assay [2] is 8.32.

In assay [1], `Cn1nnc(-c2c(F)cc(Cl)cc2-c2ccc3c(c2)SCC3NC(=O)C2(NC(=O)c3cncnc3)CC2)n1` (racemic) [Example 63, Pyrimidine-5-carboxylic acid(1-{(rac)-6-[5-chloro-3-fluoro-2-(2-methyl-2H-tetrazol-5-yl)-phenyl]-2,3-dihydro-benzo[b]thiophen-3-ylcarbamoyl}-cyclopropyl)-amide] had a pKi of 8.32. For the same compound, in assay [2], the pIC50 is 9.70.

For the compound `Cn1nnc(-c2c(F)cc(Cl)cc2-c2ccc3c(c2)SCC3NC(=O)C2(NC(=O)c3ccno3)CC2)n1` (racemic) [Example 64, Isoxazole-5-carboxylic acid(1-{(rac)-6-[5-chloro-3-fluoro-2-(2-methyl-2H-tetrazol-5-yl)-phenyl]-2,3-dihydro-benzo[b]thiophen-3-ylcarbamoyl}-cyclopropyl)-amide], the negative-log Ki (pKi) in assay [1] was 8.15. Further, the negative logarithm of the IC50 (pIC50) in assay [2] is 9.30.

As for `COc1cc(C(=O)NC2(C(=O)NC3CSc4cc(-c5cc(Cl)cc(F)c5-c5nnn(C)n5)ccc43)CC2)on1` (racemic) [Example 65, 3-Methoxy-isoxazole-5-carboxylic acid(1-{(rac)-6-[5-chloro-3-fluoro-2-(2-methyl-2H-tetrazol-5-yl)-phenyl]-2,3-dihydro-benzo[b]thiophen-3-ylcarbamoyl}-cyclopropyl)-amide], the pKi in assay [1] was 8.36. Further, the negative logarithm of the IC50 (pIC50) in assay [2] was 9.70.

On to `Cc1nc(-c2c(F)cc(Cl)cc2-c2cnc3c(c2)CCC3NC(=O)C2(NC(=O)c3ccnnc3)CC2)no1` (single isomer, unassigned) [Example 40, Pyridazine-4-carboxylic acid(1-{(R or S) 3-[5-chloro-3-fluoro-2-(5-methyl-[1,2,4]oxadiazol-3-yl)-phenyl]-6,7-dihydro-5H-[1]pyrindin-7-ylcarbamoyl}-cyclopropyl)-amide], for which the pKi in assay [1] is 6.89. In addition, in assay [2], the pIC50 was 7.45.

For `Cc1nc(-c2c(F)cc(Cl)cc2-c2cnc3c(c2)CCC3NC(=O)C2(NC(=O)c3ccnnc3)CC2)no1` (single isomer, unassigned) [Example 41, Pyridazine-4-carboxylic acid(1-{(S or R) 3-[5-chloro-3-fluoro-2-(5-methyl-[1,2,4]oxadiazol-3-yl)-phenyl]-6,7-dihydro-5H-[1]pyrindin-7-ylcarbamoyl}-cyclopropyl)-amide], the pKi in assay [1] was 8.40. The pIC50 in assay [2] is 9.70.

Compound `Cc1nc(-c2c(F)cc(Cl)cc2-c2ccc3c(c2)CC[C@@H]3NC(=O)C2(NC(=O)C(F)(F)F)CC2)no1` [Example 5, 1-(2,2,2-Trifluoro-acetylamino)-cyclopropanecarboxylic acid{(S)-5-[5-chloro-3-fluoro-2-(5-methyl-[1,2,4]oxadiazol-3-yl)-phenyl]-indan-1-yl}-amide] had a pKi in assay [1] of 8.21. For the same compound, the pIC50 in assay [2] is 9.22.

`COC(=O)c1c(Cl)cccc1-c1ccc2c(c1)CC[C@@H]2NC(=O)C1(NC(=O)C(F)(F)F)COC1` [Example 6, 2-Chloro-6-((S)-1-{[3-(2,2,2-trifluoro-acetylamino)-oxetane-3-carbonyl]-amino}-indan-5-yl)-benzoic acid methyl ester]: the pKi in assay [1] was 6.42. Also, in assay [2], the pIC50 is 6.34.

For the compound `Cc1nc(-c2c(F)cc(Cl)cc2-c2ccc3c(c2)CC[C@@H]3NC(=O)C2(NC(=O)C(F)(F)F)COC2)no1` [Example 7, 3-(2,2,2-Trifluoro-acetylamino)-oxetane-3-carboxylic acid{(S)-5-[5-chloro-3-fluoro-2-(5-methyl-[1,2,4]oxadiazol-3-yl)-phenyl]-indan-1-yl}-amide], the negative-log Ki (pKi) in assay [1] is 7.43. Moreover, in assay [2], the negative logarithm of the IC50 (pIC50) was 7.54.

Consider `Cn1nnc(-c2c(F)cc(Cl)cc2-c2ccc3c(c2)CC[C@@H]3NC(=O)C2(NC(=O)C(F)(F)F)COC2)n1` [Example 8, 3-(2,2,2-Trifluoro-acetylamino)-oxetane-3-carboxylic acid{(S)-5-[5-chloro-3-fluoro-2-(2-methyl-2H-tetrazol-5-yl)-phenyl]-indan-1-yl}-amide], for which the negative logarithm of the Ki (pKi) in assay [1] was 7.52. The pIC50 in assay [2] is 7.61.

In the case of `Cc1nc(-c2c(F)cc(Cl)cc2-c2ccc3c(c2)CC[C@@H]3NC(=O)C2(NC(=O)OC(C)(C)C)CC2)no1` [Example 23, (1-{(S)-5-[5-Chloro-3-fluoro-2-(5-methyl-[1,2,4]oxadiazol-3-yl)-phenyl]-indan-1-ylcarbamoyl}-cyclopropyl)-carbamic acid tert-butyl ester], the negative-log Ki (pKi) in assay [1] is 6.17. Moreover, in assay [2], the negative-log IC50 (pIC50) was 6.48.

For the compound `Cc1nc(-c2c(F)cc(Cl)cc2-c2ccc3c(c2)CC[C@@H]3NC(=O)C2(N)CC2)no1` [Example 24, 1-Amino-cyclopropanecarboxylic acid{(S)-5-[5-chloro-3-fluoro-2-(5-methyl-[1,2,4]oxadiazol-3-yl)-phenyl]-indan-1-yl}-amide], the negative-log Ki (pKi) in assay [1] is 7.44. Moreover, in assay [2], the pIC50 is 8.30.

In assay [1], `Cc1nc(-c2c(F)cc(Cl)cc2-c2ccc3c(c2)CC[C@@H]3NC(=O)C2(NC(=O)c3cncnc3)CC2)no1` [Example 25, Pyrimidine-5-carboxylic acid(1-{(S)-5-[5-chloro-3-fluoro-2-(5-methyl-[1,2,4]oxadiazol-3-yl)-phenyl]-indan-1-ylcarbamoyl}-cyclopropyl)-amide] gave a negative-log Ki (pKi) of 8.51. The negative logarithm of the IC50 (pIC50) in assay [2] is 10.00.

`COc1ncc(C(=O)NC2(C(=O)N[C@H]3CCc4cc(-c5cc(Cl)cc(F)c5-c5noc(C)n5)ccc43)CC2)cn1` [Example 26, 2-Methoxy-pyrimidine-5-carboxylic acid(1-{(S)-5-[5-chloro-3-fluoro-2-(5-methyl-[1,2,4]oxadiazol-3-yl)-phenyl]-indan-1-ylcarbamoyl}-cyclopropyl)-amide] gave a pKi in assay [1] of 8.59. For the same compound, the pIC50 in assay [2] was 9.70.

Turning to `Cc1nc(-c2c(F)cc(Cl)cc2-c2ccc3c(c2)CC[C@@H]3NC(=O)C2(NC(=O)c3ccnnc3)CC2)no1` [Example 27, Pyridazine-4-carboxylic acid(1-{(S)-5-[5-chloro-3-fluoro-2-(5-methyl-[1,2,4]oxadiazol-3-yl)-phenyl]-indan-1-ylcarbamoyl}-cyclopropyl)-amide], the negative logarithm of the Ki (pKi) in assay [1] is 8.44. Also, the pIC50 in assay [2] is 9.40.

With `Cc1nc(-c2c(F)cc(Cl)cc2-c2ccc3c(c2)CC[C@@H]3NC(=O)C2(NC(=O)c3ccno3)CC2)no1` [Example 28, Isoxazole-5-carboxylic acid(1-{(S)-5-[5-chloro-3-fluoro-2-(5-methyl-[1,2,4]oxadiazol-3-yl)-phenyl]-indan-1-ylcarbamoyl}-cyclopropyl)-amide], the pKi in assay [1] is 8.39. Further, in assay [2], the negative logarithm of the IC50 (pIC50) was 9.52.
